Where a SMILES comes first, the peptide text is derived from it. The star is where a group is joined. Cbz = O=C(OCc1ccccc1)*; CHN2 = [N-]=[N+]=C*
Tests used:
SARS-CoV-2 [1] = conditions: cited from earlier work
SARS-CoV = conditions: cited from earlier work
SARS-CoV-2 [2] = conditions: advanced COVID-19 cases, treated vs not treated; cited from earlier work
SARS-CoV-2 [3] = conditions: Vero E6 cells; screen concentration 5 µM; cited from earlier work
SARS-CoV-2 [4] = conditions: 20 COVID-19 patients; cited from earlier work
[5] = LMTM in AD; cited from earlier work
[6] = Oral doses with anti-viral activity and LMTM equivalent calculated from AD activity data; set-up: species or system human; conditions: calculated using the activity data in AD as basis for comparison
Complex IV = conditions: tau transgenic mouse model; cited from earlier work
[7] = Phase 3 double-blind controlled studies of LMTM in AD and bvFTD, safety; type: in vivo, human
Protocol: Three Phase 3, double-blind, controlled studies of LMTM have been completed (one each in subjects with mild and mild to moderate AD and one in subjects with bvFTD). Results of the AD studies have been published (Gauthier et al., 2016; Wilcock et al., 2018; Shiells et al., 2020). These studies provide an overview of the more common adverse events that might be expected at a dose of LMTM 16 mg/day. In these three studies, 1897 subjects received at least one dose of LMTM. Of these, 860 subjects received LMTM 8 mg/day and 1037 subjects received at least one dose of LMTM in the higher doses of 150 to 250 mg/day. The mean ages of study participants were 71 years (ranging up to 89 years) for subjects with AD and 63 years (ranging up to 79 years) for subjects with bvFTD.
The overall person-years of exposure to LMTM 8 mg/day was 995.2 person-years and to the higher LMTM doses of 150 to 250 mg/day was 988.6 person-years. Six percent (6%) of the subjects discontinued LMTM 8 mg/day due to adverse events; the proportion of subjects discontinuing due to adverse events in the higher dose groups was higher (14%).
The most common Treatment-Emergent Adverse Events (TEAEs) considered at least possibly associated with LMTM given in a dose of 8 mg/day were gastrointestinal (mostly diarrhoea and nausea), genitourinary (mostly pollakiuria and urinary incontinence), haematologic (anaemia, decreased folate, and folate deficiency), and nervous system related (mostly fatigue, dizziness, headache, agitation, and insomnia).
In summary, therefore, the safety of LMTM has been studied in over 2400 patients in Phase 1 and Phase 3 trials at repeat doses up to 450 mg/day. Even at the highest doses examined, the safety profile of LMTM remains benign and consistent with further clinical development.

[8] = LMTM relative to MTC; cited from earlier work
red cells = conditions: administered intravenously; LMTM relative to MTC; cited from earlier work

CCN(CC)CCCC(C)Nc1ccnc2cc(Cl)ccc12 (centres unmarked) [chloroquine]
effectiveness against SARS-CoV-2 in vitro (SARS-CoV-2 [1]): effectiveness
effectiveness against SARS-CoV in vitro (SARS-CoV): effectiveness
benefit in advanced cases (mortality rates) (SARS-CoV-2 [2]): no benefit

C[C@@H]1CS/C(=N\NC(=O)C(=O)[C@@H](NC(=O)C2CCCCCC2)C2CCOCC2)N1C [ONO 5334]
inhibition of viral replication (SARS-CoV-2 [3]): inhibited viral replication

CC[C@H](NC(=O)[C@H](CS(=O)(=O)CC1CC1)N[C@@H](c1ccc(F)cc1)C(F)(F)F)C(=O)C(=O)NC1CC1 [VBY-825]
inhibition of viral replication (SARS-CoV-2 [3]): inhibited viral replication

CCN(CCO)CCCC(C)Nc1ccnc2cc(Cl)ccc12 (centres unmarked) [hydroxychloroquine]
viral load in nasal swabs (SARS-CoV-2 [4]): significantly reduced viral load

CC(C)CC(NC(=O)OCc1ccccc1)C(=O)NC(C(=O)NCC(=O)C=[N+]=[N-])C(C)C (stereo not drawn) [Z LVG CHN2] (Cbz-Leu-Val-Gly-CHN2; configuration not given here)
inhibition of viral replication (SARS-CoV-2 [3]): inhibited viral replication

CC(C)(O)c1ccc2c(c1)/C(=C/CCN1CC[C@](O)(c3ccc(Cl)cc3)C(C)(C)C1)c1cccnc1CO2 [MLN-3897]
inhibition of viral replication (SARS-CoV-2 [3]): inhibited viral replication

CN(C)c1ccc2c(c1)Sc1cc(N(C)C)ccc1N2.CS(=O)(=O)O.CS(=O)(=O)O [LMTM, N,N,N′,N′-tetramethyl-10H-phenothiazine-3,7-diaminium bis(hydromethanesulfonate)]
minimum effective dose required for anti-dementia effects [5]: 8 mg/day
optimally effective dose [5]: 16 mg/day
equivalent doses of LMTM [6]: 12 - 27 mg/MT per day
brain Complex IV activity (Complex IV): enhance brain Complex IV activity
change in RBC count, haemoglobin and haematocrit ([7]; LMTM 8 mg/day): minimal change
subjects discontinued due to adverse events ([7]; LMTM 8 mg/day): 6%
vital sign measurements, ECGs, or the C-SSRS ([7]; Phase 3 studies): No clinically meaningful trends
RBC count, haemoglobin and haematocrit ([7]; greater decreases in the higher dose groups (150 to 250 mg/day) compared to 8 mg/day): dose-dependent decreases
subjects discontinuing due to adverse events ([7]; higher LMTM doses of 150 to 250 mg/day): 14%
incidence of anaemia-related TEAEs, gastrointestinal events and genitourinary events ([7]; higher LMTM doses, 150 to 250 mg/day): dose-related increase
safety profile ([7]; over 2400 patients in Phase 1 and Phase 3 trials, repeat doses up to 450 mg/day): benign
better brain:plasma ratio [8]: more than 60 fold
better uptake into red cells (red cells): 20 fold
cardiotoxicity (Cardiotoxicity): does not have the cardiotoxicity

Cc1cccc(/C=N/Nc2cc(N3CCOCC3)nc(OCCc3ccccn3)n2)c1 [Apilimod]
inhibition of viral replication (SARS-CoV-2 [3]): inhibited viral replication
